# Reference: US20260315596A1, “HYBRID NANOPARTICLES AS MULTIFUNCTIONAL PLATFORM FOR BRAIN TUMOR THERAPY” (UNIVERSIDADE DE COIMBRA, priority 2022, published 2026)
# Read-outs that look alike come from different tables or passages of the source.
# Columns and labels:
# [1] = tested on: U87 cells; assay: Resazurin cytotoxicity assay in U87 / glioma cells; assay type: cell-based, human; details: for IC50: all glioma cells, 24 hours and 72 hours
# Protocol: In vitro toxicity studies were performed as described in Example 4. To assess the potential cytotoxicity of both loaded and unloaded NPs, the resazurin assay was conducted in HBMEC and U87 cells. The sensitivity of GB cells to free CXB and TMZ was assessed following a treatment with a drug solution in the range 7-1700 μM and 5-2500 μM, respectively.
# The cytotoxicity effect of AuNRs^c(RGDfK) and HNPs/HNPs^Tf against U87 cells. Regarding cell viability, the U87 cells were cultured in DMEM/F-12 medium, supplemented with 10% (v/v) FBS, 1% (v/v) penicillin-streptomycin solution and sodium bicarbonate. U87 were maintained at 37° C. in a humidified atmosphere containing CO2 (5%). The resazurin assay was used to determine the cytotoxicity of CXB, AuNRs^c(RGDfK) and HNPs. Briefly, 2000 cells per well were seeded in a 96 well plate and incubated for 24 hours or 72 hours after the medium was replaced with increasing concentrations of CXB or AuNRs^c(RGDfK) or HNPs/HNPS^Tf. Subsequently, the medium was removed, and the cell viability determined. For this purpose, 100 μl of 10% (w/v) resazurin solution in DMEM/F 12 was added to the cells and incubated for approximately 2 hours, at 37° C. The enzymatic reduction of resazurin to resorufin was analyzed by UV/Vis spectrophotometry at 570 nm and 600 nm. Cell viability was assessed as described above.
# [2] = Serum biomarkers for toxicity evaluation in glioblastoma-bearing mice; assay type: in vivo, Swiss nude mice; details: free drug in solution
# Protocol: After reaching the endpoint, animals were euthanized. Whole blood samples were collected from mice immediately to heparinized tubes. The supernatant (serum) of blood obtained after centrifugation (2880×g for 10 min at 4° C.) was used to determine the levels of physiological biomarkers such as aspartate aminotransferase (AST), alanine aminotransferase (ALT), alkaline phosphatase (ALP), gamma glutamyl transpeptidase (GGT), creatinine kinase (CK), and urea (U) to investigate the effects of drug, nanoparticles and photothermal treatment.
# [3] = Pharmacokinetics and biodistribution in mice after i.p. administration; assay type: in vivo, Swiss nude mice; design: AUCinf: concentration or dose not given beside the values
# Protocol: Adult male and female Swiss Nu/Nu and Swiss Nu/+ mice, aged between 10-14 weeks and weighting 22-30 g, were purchased from Charles River Laboratories (Lyon, France) and maintained in local animal facilities under controlled conditions (12 hours light/dark cycle, at 20±2° C. and 50±5% of relative humidity), with free access to standard diet and water. All animal experiments were conducted in agreement with the international regulations of the European Union.
# A solution containing CXB in PEG 400: NaCl 0.9% (pH=7.4) (2:1, V/V) was used as control. Thereafter, mice were sacrificed by decapitation at predetermined post-dosing time points. Blood samples were collected to heparinised tubes and centrifuged at 2880 g for 10 min at 4° C. Plasma supernatant was collected and frozen at −80° C. until analysis. […] Brain and liver tissues were homogenized with an H2O-acetonitrile (1:1, V/V) solution (4 mL per g of tissue) using a Thomas® Teflon pestle tissue homogenizer and centrifuged at 4 150 g for 15 min at 4° C. In parallel, spleen tissues were homogenized with 1 ml of the same solution using a high-speed stirrer (Ultra-Turrax X1020, Ystral GmbH, Dottingen, Germany) and then, centrifuged at 12 045 g for 5 min at 4° C. All supernatants were collected and stored at −80° C. until analysis using a previously validated HPLC method. […]
# [4] = Safety and tolerability in mice; design: species or system Swiss nude mice; details: mouse, in vivo
# Protocol: The dose used for temozolomide was 30 mg/kg (i.p administration) and 50 mg/kg (oral administration), as the upper threshold tolerated by animals. The treatment started 21 days after U87 cell implantation.
# To understand the drug effect: At 21 days post-tumor cell injection, mice were randomly divided into six groups and treated intraperitoneally for two cycles of five consecutive days. […] Similarly, to the safety evaluation test, all animals were closely observed during the immediate post injection period. Mice physical appearance (body weight and coat condition), body function (food intake), presence of loose stools, diarrhea or blood in diarrhea and behavior (handling, aggression, abnormal gait and posture and reluctance to move) were also monitored throughout the study. Pre-determined human endpoints for animal euthanasia were also established, specifically, a weight loss greater than 20% of initial body weight, a temperature drop (<35° C.), and a tumor size higher than 50 mm^3.
# [5] = tested on: orthotopic U87 human GB tumor; assay: In vivo antitumor efficacy in orthotopic U87 glioblastoma model; design: species or system human tumor in Swiss nude mice
# Protocol: Regarding orthotopic U87 human GB tumor model, before the surgical procedure, fourteen nude mice were weighted, given buprenorphine (0.1 mg/Kg) intraperitoneally and placed on a stereotactic frame. To maintain anesthesia and sedation, the mice were anesthetized for 30 min with 4% isoflurane gas, mixed with medical oxygen at a rate of 1 L/min. Vital signs such as respiratory frequency and body temperature were monitored continuously. After the identification of the injection site, at the Cartesian coordinates (x, y, z)=(2.1, 0.5, −3) in relation to bregma, approximately 36 000 U87 cells were injected in the striatum of the frontal cortex of the right hemisphere of the brain, using a Hamilton syringe. In every mouse, the presence, location and volume of the tumors were assessed by Magnetic Resonance Imaging (MRI) weekly. MRI was performed using a 9.4T Bruker BioSpec 94/20USR system (Bruker, Germany) after anesthetizing mice with isoflurane (1 L/min, induction: 4% isoflurane; maintenance: 2% isoflurane). Vital signs, in particular, respiratory frequency and body temperature, were monitored continuously. For structural analysis, T2-weighted images were acquired in sagittal, coronal and axial planes, using a rapid acquisition with relaxation enhancement sequence (T2 Turbo RARE). Tumor images were manually segmented in the 3D Slicer software for 3D reconstruction, in order to calculate tumor volume.
# Similarly, to the safety evaluation test, all animals were closely observed during the immediate post injection period. Mice physical appearance (body weight and coat condition), body function (food intake), presence of loose stools, diarrhea or blood in diarrhea and behavior (handling, aggression, abnormal gait and posture and reluctance to move) were also monitored throughout the study. Pre-determined human endpoints for animal euthanasia were also established, specifically, a weight loss greater than 20% of initial body weight, a temperature drop (<35° C.), and a tumor size higher than 50 mm^3. […]
# The tumor growth delayed (TGD), which concerns the evaluation of tumor treatment modalities, was calculated according to
# where, Dtreatment and Dcontrol correspond to the average doubling times of the treated and control tumors, respectively.
# The tumor growth inhibition (TGI), which measures the tumor size between treated and control groups at specific time points was calculated according to
# [formula] • where ΔT (=T−T0) represents the change in tumor size (volume) for the treated animals, while ΔC(=C−C0) represents the change in tumor size (volume) for the control animals. By comparing these values, the degree of tumor growth inhibition can be determined.
# [6] = tested on: glioblastoma; details: cited from earlier work
# [7] = celecoxib, i.p. mice, plasma, 20 mg/kg
# [8] = mouse, ip, 20 mg/kg, celecoxib, i.p. mice, brain
# [9] = mouse, ip, 20 mg/kg, celecoxib, i.p. mice, kidney
# [10] = mouse, ip, 20 mg/kg, celecoxib, i.p. mice, liver
# [11] = mouse, ip, 20 mg/kg, celecoxib, i.p. mice, plasma
# [12] = mouse, ip, 20 mg/kg, celecoxib, i.p. mice, spleen
# [13] = i.p., no irradiation (TMZ 30 mg/kg, CXB 5 mg/kg, nanoparticles 20 mg/kg)
# [14] = i.p., no irradiation (TMZ 30 mg/kg, CXB 5 mg/kg, nanoparticles 20 mg/kg), listed as temozolomide
# [15] = oral, 50 mg/kg, listed as temozolomide
structure (smiles),measurement,setting,value
"Cc1ccc(-c2cc(C(F)(F)F)nn2-c2ccc(S(N)(=O)=O)cc2)cc1 [CXB, celecoxib]",effect on cellular proliferation,"[1]; free CXB, after 24 hours and 72 hours",able to impair cellular proliferation
same,IC50,[1]; free CXB,< 400 µM
same,CK increase over saline group,[2],1.17 fold
same,AUC0-last,"[3]; celecoxib, i.p. mice, brain",36.7 µg·h/g
same,AUCextrap,"[3]; celecoxib, i.p. mice, brain",7.08%
same,AUCinf,"[3]; celecoxib, i.p. mice, brain",39.5 µg·h/g
same,AUC0-last,"[3]; celecoxib, i.p. mice, kidney",35.3 µg·h/g
same,AUCextrap,"[3]; celecoxib, i.p. mice, kidney",16.3%
same,AUCinf,"[3]; celecoxib, i.p. mice, kidney",42.2 µg·h/g
same,AUC0-last,"[3]; celecoxib, i.p. mice, liver",27.7 µg·h/g
same,AUCextrap,"[3]; celecoxib, i.p. mice, liver",30.4%
same,AUCinf,"[3]; celecoxib, i.p. mice, liver",39.8 µg·h/g
same,AUCextrap,"[3]; celecoxib, i.p. mice, plasma",13.0%
same,AUC0-last,[3]; [7],28100 ng·h/mL
same,Cmax,[3]; [7],9100 ng/mL
same,AUC0-last,"[3]; celecoxib, i.p. mice, spleen",73.2 µg·h/g
same,AUCextrap,"[3]; celecoxib, i.p. mice, spleen",42.0%
same,AUCinf,"[3]; celecoxib, i.p. mice, spleen",126.2 µg·h/g
same,Cmax,"[3]; mouse, brain, ip, 20 mg/kg, celecoxib, i.p. mice, brain, read-out: Cmax",20600 ng/g
same,AUC(0-t),"[3]; mouse, ip, 20 mg/kg, plasma",28100 ng·h/mL
same,MRT,[3]; [8],2 h
same,Tmax,[3]; [8],1 h
same,half-life,[3]; [8],1.4 h
same,MRT,[3]; [9],3.05 h
same,Tmax,[3]; [9],2 h
same,half-life,[3]; [9],2 h
same,MRT,[3]; [10],4.6 h
same,Tmax,[3]; [10],0.5 h
same,half-life,[3]; [10],2.8 h
same,AUC(0-inf),[3]; [11],32300 ng·h/mL
same,MRT,[3]; [11],2.9 h
same,Tmax,[3]; [11],1 h
same,half-life,[3]; [11],1.9 h
same,MRT,[3]; [12],6.47 h
same,Tmax,[3]; [12],1 h
same,half-life,[3]; [12],4.07 h
same,Cmax,"[3]; mouse, kidney, ip, 20 mg/kg, celecoxib, i.p. mice, kidney, read-out: Cmax",15600 ng/g
same,Cmax,"[3]; mouse, liver, ip, 20 mg/kg, celecoxib, i.p. mice, liver, read-out: Cmax",10600 ng/g
same,Cmax,"[3]; mouse, plasma, ip, 20 mg/kg, celecoxib, i.p. mice, plasma, read-out: Cmax",9090 ng/mL
same,Cmax,"[3]; mouse, spleen, ip, 20 mg/kg, celecoxib, i.p. mice, spleen, read-out: Cmax",22400 ng/g
same,MTD,"[4]; ip, celecoxib in solution, i.p., read-out: dose above which toxicity was exhibited",> 5 mg/kg
same,mean survival time (MST),"[5]; i.p., no irradiation (CXB 5 mg/kg, nanoparticles 20 mg/kg)",48 days
same,% Tumor Growth Delay,[5]; [13],15 ± 5%
same,% Tumor Growth Inhibition,[5]; [13],13 ± 6%
same,Median survival,[5]; [13],48 days
same,Survivals at 56 days,[5]; [13],1/6
same,Survivals at 91 days,[5]; [13],0/6
same,inhibition of growth of GB cells in vivo,"[5]; i.p., in words",the effect was not significant
"Cn1nnc2c(C(N)=O)ncn2c1=O [TMZ, temozolomide]",IC50,"[1]; Homo sapiens, U-87 MG, free TMZ",800 µM
same,CK increase over saline group,[2],1.32 fold
same,MTD,"[4]; ip, i.p. administration, read-out: upper threshold dose tolerated by animals",30 mg/kg
same,MTD,"[4]; oral administration, read-out: upper threshold dose tolerated by animals",50 mg/kg
same,median OS,"[6]; combination with radiotherapy vs. 12.1 months radiotherapy alone, P<0.001",14.6 months
same,median survival time in patients,"[6]; comparative studies of several chemotherapeutic agents, in words",highest median survival time in patients
same,animals that survived and prevented tumor recurrence,"[5]; i.p. 30 mg/kg, out of 6 animals, 91 days",4
same,% Tumor Growth Delay,[5]; [13],75 ± 21%
same,% Tumor Growth Inhibition,[5]; [13],66 ± 33%
same,Median survival,[5]; [13],91 days
same,Survivals at 56 days,[5]; [13],6/6
same,Survivals at 91 days,[5]; [13],4/6
same,% Tumor Growth Delay,[5]; [14],75%
same,% Tumor Growth Inhibition,[5]; [14],66%
same,% Tumor Growth Delay,"[5]; oral, 50 mg/kg",54 ± 11%
same,% Tumor Growth Inhibition,"[5]; oral, 50 mg/kg",42 ± 14%
same,Median survival,"[5]; oral, 50 mg/kg",70 days
same,Survivals at 56 days,"[5]; oral, 50 mg/kg",1/6
same,Survivals at 91 days,"[5]; oral, 50 mg/kg",1/6
same,animals that survived without tumor recurrence,"[5]; oral, 50 mg/kg",only one animal survived
same,mean survival time (MST),"[5]; oral, 50 mg/kg",70 days
same,% Tumor Growth Delay,[5]; [15],54%
same,% Tumor Growth Inhibition,[5]; [15],42%
